Assay results published in patent publication US5591758A, “Organic nitrates, processes for their preparation and their use in the treatment of cardiovascular diseases” (Laboratoires Hoechst, SA, priority 1991, dated 1997).
Values joined by “and” are separate entries in the source; they are usually repeats but may differ in a detail not shown here. Equal values may be shown once. Where a name gives a salt, the structure may show the parent alone.

How the values were obtained:
thoracic aorta = test: Vasorelaxant effect on isolated vessels (rat thoracic aorta rings without endothelium, precontracted with noradrenalin); parameters: species or system Wistar rats
Summary of the method: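 Endothelium-denuded thoracic aorta rings from Wistar rats, held in Krebs-Ringer buffer (pH 7.4, 37 °C, 95% O2/5% CO2) under isometric tension and precontracted with 10^-7 M noradrenalin, received cumulative compound (10^-8 to 10^-4 M). Maximum relaxation given as percent; IC50 calculated when relaxation exceeded 50%.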

[1] = test system: unanaesthetised hypertensive dogs; test: Haemodynamic effects in unanaesthetised hypertensive dogs; type: in vivo; parameters: Δdp/dt / Δdp/dt average: unit not given beside the values; ΔBPs / ΔBPd / ΔLVEDP / ΔBPs average / ΔBPd average / ΔLVEDP average / ΔHR average: unit not given here; conditions: for ΔBPd average / ΔBPs average / ΔHR average / ΔLVEDP average / Δdp/dt average: n = 3, 3 mg/kg p.o.; for ΔBPd / ΔBPs / ΔHR / ΔLVEDP / Δdp/dt: single dog
Description: Haemodynamic effects of the compounds according to the invention in unanaesthetised hypertensive dogs (n=3).
Table VI below and FIG. 1 show more particularly the change in the effect of compound (46) on the various haemodynamic parameters as a function of time, the compound being administered p.o. in a dosage of 3 mg/kg.

[2] = 3 mg/kg p.o., 10 min, monohydrochloride, 3 mg/kg
[3] = 3 mg/kg p.o., 20 min, monohydrochloride, 3 mg/kg
[4] = 3 mg/kg p.o., 30 min, monohydrochloride, 3 mg/kg
[5] = 3 mg/kg p.o., 60 min, monohydrochloride, 3 mg/kg
[6] = 3 mg/kg p.o., 90 min, monohydrochloride, 3 mg/kg
[7] = 3 mg/kg p.o., 120 min, monohydrochloride, 3 mg/kg
[8] = 3 mg/kg p.o., 180 min, monohydrochloride, 3 mg/kg
[9] = 3 mg/kg p.o., 240 min, monohydrochloride, 3 mg/kg
[10] = 3 mg/kg p.o., 300 min, monohydrochloride, 3 mg/kg
[11] = 3 mg/kg p.o., 360 min, monohydrochloride, 3 mg/kg

O=C(CNC(=O)[C@@H]1CSCN1)N[C@H]1CO[C@H]2[C@@H]1OC[C@@H]2O[N+](=O)[O-] [Compound 46, 5-[[2-[[(4-L-Thiazolidinyl)carbonyl]amino]-1oxoethyl]amino]-5-deoxy-2-O-nitro-1,4:3,6-dianhydro-L-iditol monohydrochloride]
Emax (thoracic aorta; Rattus norvegicus, maximum inhibition of noradrenalin effect, 10^-8 to 10^-4 M substance, read-out: Maximum Relaxation): 50% | IC50 (thoracic aorta; rat aorta, 10^-7 M noradrenalin contraction): 100 µM | lowering of left ventricular end-diastolic pressure (LVEDP) ([1]; 3 mg/kg p.o.): significant, pronounced and prolonged | lowering of systolic blood pressure (BPs) ([1]; 3 mg/kg p.o.): significant, pronounced and prolonged | ΔBPd average ([1]; 10 min): -3 | ΔBPs average ([1]; 10 min): -5 | ΔHR average ([1]; 10 min): 3 | ΔLVEDP average ([1]; 10 min): -1 | Δdp/dt average ([1]; 10 min): -167 | ΔBPd average ([1]; 20 min): 0 | ΔBPs average ([1]; 20 min): -2 | ΔHR average ([1]; 20 min): 17 | ΔLVEDP average ([1]; 20 min): -2 | Δdp/dt average ([1]; 20 min): 33 | ΔBPd average ([1]; 30 min): 2 | ΔBPs average ([1]; 30 min): -2 | ΔHR average ([1]; 30 min): 7 | ΔLVEDP average ([1]; 30 min): -1 | Δdp/dt average ([1]; 30 min): 100 | ΔBPd average ([1]; 60 min): 0 | ΔBPs average ([1]; 60 min): -22 | ΔHR average ([1]; 60 min): -7 | ΔLVEDP average ([1]; 60 min): -4 | Δdp/dt average ([1]; 60 min): 33 | ΔBPd average ([1]; 90 min): 3 | ΔBPs average ([1]; 90 min): -28 | ΔHR average ([1]; 90 min): 23 | ΔLVEDP average ([1]; 90 min): -5 | Δdp/dt average ([1]; 90 min): -33 | ΔBPd average ([1]; 120 min): 5 | ΔBPs average ([1]; 120 min): -28 | ΔHR average ([1]; 120 min): 33 | ΔLVEDP average ([1]; 120 min): -6 | Δdp/dt average ([1]; 120 min): 0 | ΔBPd average ([1]; 180 min): 8 | ΔBPs average ([1]; 180 min): -25 | ΔHR average ([1]; 180 min): 32 | ΔLVEDP average ([1]; 180 min): -5 | Δdp/dt average ([1]; 180 min): 0 | ΔBPd average ([1]; 240 min): 8 | ΔBPs average ([1]; 240 min): -30 | ΔHR average ([1]; 240 min): 27 | ΔLVEDP average ([1]; 240 min): -5 | Δdp/dt average ([1]; 240 min): -133 | ΔBPd average ([1]; 300 min): 8 | ΔBPs average ([1]; 300 min): -27 | ΔHR average ([1]; 300 min): 27 | ΔLVEDP average ([1]; 300 min): -2 | Δdp/dt average ([1]; 300 min): 33 | ΔBPd average ([1]; 360 min): 8 | ΔBPs average ([1]; 360 min): -23 | ΔHR average ([1]; 360 min): 13 | ΔLVEDP average ([1]; 360 min): -4 | Δdp/dt average ([1]; 360 min): -133 | ΔBPd [1, 2]: -5 and 0 | ΔBPs [1, 2]: -5 and 0 and -10 | ΔHR [1, 2]: 0 and 10 | ΔLVEDP [1, 2]: -1 and 0 and -2 | Δdp/dt [1, 2]: -100 and 0 and -400 | ΔBPd ([1]; 3 mg/kg p.o., 20 min): 0 | ΔBPs [1, 3]: 0 and -5 | ΔHR [1, 3]: 35 and 0 and 15 | ΔLVEDP [1, 3]: -3 and 0 and -2 | Δdp/dt [1, 3]: 300 and 0 and -200 | ΔBPd [1, 4]: 5 and 0 | ΔBPs [1, 4]: 0 and -5 | ΔHR [1, 4]: 0 and 10 | ΔLVEDP [1, 4]: 0 and -3 | Δdp/dt [1, 4]: 0 and 500 and -200 | ΔBPd [1, 5]: 5 and 0 and -5 | ΔBPs [1, 5]: -25 and -15 | ΔHR [1, 5]: 10 and -10 and -20 | ΔLVEDP [1, 5]: -7 and -3 | Δdp/dt [1, 5]: 0 and 500 and -400 | ΔBPd [1, 6]: 5 and 10 and -5 | ΔBPs [1, 6]: -30 and -25 | ΔHR [1, 6]: 35 and 45 and -10 | ΔLVEDP [1, 6]: -7 and -6 and -3 | Δdp/dt [1, 6]: -200 and 500 and -400 | ΔBPd [1, 7]: 5 and 10 and 0 | ΔBPs [1, 7]: -30 and -25 | ΔHR [1, 7]: 55 and 63 and -20 | ΔLVEDP [1, 7]: -9 and -7 and -2 | Δdp/dt [1, 7]: -400 and 800 | ΔBPd [1, 8]: 10 and 15 and 0 | ΔBPs [1, 8]: -15 and -25 and -35 | ΔHR [1, 8]: 35 and 40 and 20 | ΔLVEDP [1, 8]: -7 and -4 | Δdp/dt [1, 8]: -300 and 500 and -200 | ΔBPd [1, 9]: 10 and 15 and 0 | ΔBPs [1, 9]: -15 and -35 and -40 | ΔHR [1, 9]: 40 and 20 | ΔLVEDP [1, 9]: -7 and -5 and -4 | Δdp/dt [1, 9]: -500 and 500 and -400 | ΔBPd [1, 10]: 10 and 15 and 0 | ΔBPs [1, 10]: -15 and -45 and -40 | ΔHR [1, 10]: 45 and 40 and -5 | ΔLVEDP [1, 10]: -4 and 0 and -3 | Δdp/dt [1, 10]: -300 and 800 and -400 | ΔBPd [1, 11]: 10 and 15 and 0 | ΔBPs [1, 11]: -10 and -25 and -35 | ΔHR [1, 11]: 15 and 10 | ΔLVEDP [1, 11]: -5 and -3 and -4 | Δdp/dt [1, 11]: -500 and 500 and -400
